Like-named read-outs stand apart in the source and are kept apart here. One block for each molecule: values may come before it.
Legend:
Assay in all cases: biochemical
Parameters in all cases: DiscoveRx KINOMEscan active site-directed competition binding; percent of control kinase bound to immobilised ligand
MARK3 = MARK3 (Homo sapiens, UniProt P27448)
[1] = target: T1, ABL1(F317L)-phosphorylated (Homo sapiens, UniProt P00519, F317L)
T1 construct: phosphorylated

HUNK = target: T2, HUNK (Homo sapiens, UniProt P57058)
T2 sequence (P57058 1-714): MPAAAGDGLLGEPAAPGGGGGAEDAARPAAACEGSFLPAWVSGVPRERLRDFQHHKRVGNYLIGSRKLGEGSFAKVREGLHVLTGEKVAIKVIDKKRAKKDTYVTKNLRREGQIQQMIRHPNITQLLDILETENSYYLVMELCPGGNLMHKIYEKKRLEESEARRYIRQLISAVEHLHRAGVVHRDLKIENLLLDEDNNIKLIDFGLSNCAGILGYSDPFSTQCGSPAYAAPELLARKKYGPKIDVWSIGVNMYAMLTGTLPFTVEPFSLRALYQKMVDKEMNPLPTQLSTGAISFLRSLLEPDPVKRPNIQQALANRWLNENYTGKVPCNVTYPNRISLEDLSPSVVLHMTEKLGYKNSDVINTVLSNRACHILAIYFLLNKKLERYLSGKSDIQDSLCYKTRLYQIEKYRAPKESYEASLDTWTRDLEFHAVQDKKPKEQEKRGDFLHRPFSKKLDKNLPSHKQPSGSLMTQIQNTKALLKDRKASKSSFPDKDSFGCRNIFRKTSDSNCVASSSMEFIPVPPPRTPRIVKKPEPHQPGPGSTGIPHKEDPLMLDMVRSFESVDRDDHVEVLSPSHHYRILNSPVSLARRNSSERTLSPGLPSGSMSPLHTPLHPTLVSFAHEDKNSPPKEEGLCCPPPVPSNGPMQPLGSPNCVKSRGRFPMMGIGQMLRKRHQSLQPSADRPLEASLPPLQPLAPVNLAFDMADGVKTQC

SRPK2 = SRPK2 (Homo sapiens, UniProt P78362)
EGFR = EGFR (Homo sapiens, UniProt P00533)
Chain of EGFR (P00533 whole entry): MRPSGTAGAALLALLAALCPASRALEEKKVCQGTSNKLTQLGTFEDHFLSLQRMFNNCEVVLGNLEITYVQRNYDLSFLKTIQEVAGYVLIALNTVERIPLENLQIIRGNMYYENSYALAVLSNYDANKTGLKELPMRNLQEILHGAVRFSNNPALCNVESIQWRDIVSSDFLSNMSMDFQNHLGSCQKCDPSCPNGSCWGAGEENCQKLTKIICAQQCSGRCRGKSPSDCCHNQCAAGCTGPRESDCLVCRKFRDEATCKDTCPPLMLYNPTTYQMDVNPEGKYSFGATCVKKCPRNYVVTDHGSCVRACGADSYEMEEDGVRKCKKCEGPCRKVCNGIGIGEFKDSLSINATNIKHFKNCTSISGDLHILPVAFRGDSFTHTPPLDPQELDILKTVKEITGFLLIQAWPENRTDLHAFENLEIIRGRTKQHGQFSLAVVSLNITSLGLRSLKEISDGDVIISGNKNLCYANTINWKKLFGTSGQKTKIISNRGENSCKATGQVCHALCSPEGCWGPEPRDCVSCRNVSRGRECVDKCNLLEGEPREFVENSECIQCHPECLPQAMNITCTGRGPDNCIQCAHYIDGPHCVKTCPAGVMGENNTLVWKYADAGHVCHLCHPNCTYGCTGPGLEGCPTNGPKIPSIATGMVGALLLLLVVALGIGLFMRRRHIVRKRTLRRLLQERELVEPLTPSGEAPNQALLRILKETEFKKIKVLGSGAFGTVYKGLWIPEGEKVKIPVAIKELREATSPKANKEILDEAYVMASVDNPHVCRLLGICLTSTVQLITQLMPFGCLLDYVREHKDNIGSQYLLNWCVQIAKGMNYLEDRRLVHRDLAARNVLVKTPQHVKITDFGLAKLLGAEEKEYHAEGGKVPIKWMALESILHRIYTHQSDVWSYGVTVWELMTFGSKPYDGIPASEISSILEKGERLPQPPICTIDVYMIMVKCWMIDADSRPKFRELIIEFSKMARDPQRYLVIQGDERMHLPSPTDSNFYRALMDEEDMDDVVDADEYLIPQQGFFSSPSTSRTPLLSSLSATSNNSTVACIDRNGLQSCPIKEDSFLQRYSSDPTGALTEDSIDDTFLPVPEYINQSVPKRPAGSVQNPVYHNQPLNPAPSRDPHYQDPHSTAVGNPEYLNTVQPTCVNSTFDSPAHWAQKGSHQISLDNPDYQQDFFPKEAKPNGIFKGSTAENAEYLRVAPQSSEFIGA

p38-delta = target: T3, p38-delta (Homo sapiens, UniProt O15264)
T3 construct: gene MAPK13
T3 sequence (O15264 1-365): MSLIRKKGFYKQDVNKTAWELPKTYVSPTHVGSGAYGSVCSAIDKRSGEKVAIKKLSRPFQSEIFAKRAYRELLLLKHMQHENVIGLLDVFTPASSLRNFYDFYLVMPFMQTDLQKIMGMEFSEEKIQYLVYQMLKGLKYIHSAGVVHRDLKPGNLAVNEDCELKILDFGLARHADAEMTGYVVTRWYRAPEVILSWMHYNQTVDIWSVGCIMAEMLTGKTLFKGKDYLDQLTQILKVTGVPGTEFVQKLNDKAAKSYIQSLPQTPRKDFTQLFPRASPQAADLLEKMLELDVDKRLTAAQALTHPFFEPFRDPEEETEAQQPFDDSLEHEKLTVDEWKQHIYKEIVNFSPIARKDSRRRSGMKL

SBK1 = SBK1 (Homo sapiens, UniProt Q52WX2)
HASPIN = target: T4, HASPIN (Homo sapiens, UniProt Q8TF76)
T4 sequence (Q8TF76 1-798): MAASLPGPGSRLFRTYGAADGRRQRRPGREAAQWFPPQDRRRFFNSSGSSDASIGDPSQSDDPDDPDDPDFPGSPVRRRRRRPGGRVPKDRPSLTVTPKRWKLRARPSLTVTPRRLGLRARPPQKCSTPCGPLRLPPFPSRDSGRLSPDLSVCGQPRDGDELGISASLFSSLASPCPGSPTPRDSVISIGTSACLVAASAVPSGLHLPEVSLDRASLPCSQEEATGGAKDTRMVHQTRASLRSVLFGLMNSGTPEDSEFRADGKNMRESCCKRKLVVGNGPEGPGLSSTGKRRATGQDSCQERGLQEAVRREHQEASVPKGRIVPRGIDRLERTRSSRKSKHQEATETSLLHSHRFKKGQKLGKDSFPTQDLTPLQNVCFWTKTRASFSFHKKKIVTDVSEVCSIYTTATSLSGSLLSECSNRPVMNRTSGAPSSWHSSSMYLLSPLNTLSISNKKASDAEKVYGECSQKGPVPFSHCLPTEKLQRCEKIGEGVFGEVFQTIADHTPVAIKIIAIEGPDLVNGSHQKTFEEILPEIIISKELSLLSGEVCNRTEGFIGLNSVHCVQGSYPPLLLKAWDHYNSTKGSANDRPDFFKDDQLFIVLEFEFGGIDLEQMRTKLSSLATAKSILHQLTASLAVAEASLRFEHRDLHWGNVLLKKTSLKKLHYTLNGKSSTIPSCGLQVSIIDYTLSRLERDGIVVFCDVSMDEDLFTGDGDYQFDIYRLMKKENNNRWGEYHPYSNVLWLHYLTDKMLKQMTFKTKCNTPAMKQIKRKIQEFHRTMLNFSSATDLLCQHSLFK

TESK1 = TESK1 (Homo sapiens, UniProt Q15569)
Chain of TESK1 (Q15569 whole entry): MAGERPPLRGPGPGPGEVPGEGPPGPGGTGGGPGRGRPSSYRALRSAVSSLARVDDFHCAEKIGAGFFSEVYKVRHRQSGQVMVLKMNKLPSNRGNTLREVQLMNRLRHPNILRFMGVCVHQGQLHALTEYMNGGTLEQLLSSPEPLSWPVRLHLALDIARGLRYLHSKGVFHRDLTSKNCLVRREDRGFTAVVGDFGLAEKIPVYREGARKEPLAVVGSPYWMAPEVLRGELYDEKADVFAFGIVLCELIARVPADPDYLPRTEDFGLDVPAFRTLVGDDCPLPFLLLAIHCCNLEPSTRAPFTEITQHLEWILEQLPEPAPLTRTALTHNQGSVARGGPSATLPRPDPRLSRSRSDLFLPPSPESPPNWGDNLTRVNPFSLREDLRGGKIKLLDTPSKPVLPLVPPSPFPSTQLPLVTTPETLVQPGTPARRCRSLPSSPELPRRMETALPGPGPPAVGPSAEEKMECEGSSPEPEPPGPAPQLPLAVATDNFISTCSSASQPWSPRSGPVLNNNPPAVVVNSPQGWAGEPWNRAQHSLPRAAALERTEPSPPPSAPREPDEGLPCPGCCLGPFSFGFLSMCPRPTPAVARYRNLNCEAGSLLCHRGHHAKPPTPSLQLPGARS

KIT(D816H) = KIT(D816H) (Homo sapiens, UniProt P10721, D816H)
Chain of KIT(D816H) (P10721 whole entry D816H): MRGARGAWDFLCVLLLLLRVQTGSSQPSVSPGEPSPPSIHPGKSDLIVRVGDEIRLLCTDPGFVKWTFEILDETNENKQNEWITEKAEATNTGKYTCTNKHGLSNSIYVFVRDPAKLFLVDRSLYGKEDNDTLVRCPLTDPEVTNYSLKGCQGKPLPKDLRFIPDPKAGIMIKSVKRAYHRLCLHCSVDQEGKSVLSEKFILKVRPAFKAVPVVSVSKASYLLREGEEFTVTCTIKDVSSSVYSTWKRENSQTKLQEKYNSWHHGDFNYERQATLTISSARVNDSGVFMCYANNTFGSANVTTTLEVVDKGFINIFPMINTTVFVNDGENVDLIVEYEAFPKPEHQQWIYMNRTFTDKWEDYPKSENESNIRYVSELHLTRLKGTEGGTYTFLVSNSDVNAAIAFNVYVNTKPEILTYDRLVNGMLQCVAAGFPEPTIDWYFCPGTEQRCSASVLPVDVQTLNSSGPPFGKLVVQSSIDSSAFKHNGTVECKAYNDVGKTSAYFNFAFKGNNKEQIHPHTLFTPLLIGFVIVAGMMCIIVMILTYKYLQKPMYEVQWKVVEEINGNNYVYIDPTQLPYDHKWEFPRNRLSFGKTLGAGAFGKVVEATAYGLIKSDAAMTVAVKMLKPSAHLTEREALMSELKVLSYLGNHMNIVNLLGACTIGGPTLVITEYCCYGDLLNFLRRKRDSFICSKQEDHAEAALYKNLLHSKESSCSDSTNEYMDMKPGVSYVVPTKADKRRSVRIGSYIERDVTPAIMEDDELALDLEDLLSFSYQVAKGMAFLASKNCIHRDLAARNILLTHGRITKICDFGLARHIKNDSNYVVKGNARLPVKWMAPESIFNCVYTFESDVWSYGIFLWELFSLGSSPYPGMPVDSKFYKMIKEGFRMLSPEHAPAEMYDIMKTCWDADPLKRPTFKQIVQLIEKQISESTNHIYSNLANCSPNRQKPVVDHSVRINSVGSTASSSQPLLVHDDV

FGFR1 = FGFR1 (Homo sapiens, UniProt P11362)
[2] = read-out: Niraparib (MK-4827) / %Ctrl @ 10000nM
[3] = read-out: Olaparib / %Ctrl @ 10000nM
[4] = read-out: Rucaparib / %Ctrl @ 10000nM, binding competition, % of control
[5] = read-out: Talazoparib (BMN 673) / %Ctrl @ 10000nM

T1 sequence (P00519 whole entry F317L): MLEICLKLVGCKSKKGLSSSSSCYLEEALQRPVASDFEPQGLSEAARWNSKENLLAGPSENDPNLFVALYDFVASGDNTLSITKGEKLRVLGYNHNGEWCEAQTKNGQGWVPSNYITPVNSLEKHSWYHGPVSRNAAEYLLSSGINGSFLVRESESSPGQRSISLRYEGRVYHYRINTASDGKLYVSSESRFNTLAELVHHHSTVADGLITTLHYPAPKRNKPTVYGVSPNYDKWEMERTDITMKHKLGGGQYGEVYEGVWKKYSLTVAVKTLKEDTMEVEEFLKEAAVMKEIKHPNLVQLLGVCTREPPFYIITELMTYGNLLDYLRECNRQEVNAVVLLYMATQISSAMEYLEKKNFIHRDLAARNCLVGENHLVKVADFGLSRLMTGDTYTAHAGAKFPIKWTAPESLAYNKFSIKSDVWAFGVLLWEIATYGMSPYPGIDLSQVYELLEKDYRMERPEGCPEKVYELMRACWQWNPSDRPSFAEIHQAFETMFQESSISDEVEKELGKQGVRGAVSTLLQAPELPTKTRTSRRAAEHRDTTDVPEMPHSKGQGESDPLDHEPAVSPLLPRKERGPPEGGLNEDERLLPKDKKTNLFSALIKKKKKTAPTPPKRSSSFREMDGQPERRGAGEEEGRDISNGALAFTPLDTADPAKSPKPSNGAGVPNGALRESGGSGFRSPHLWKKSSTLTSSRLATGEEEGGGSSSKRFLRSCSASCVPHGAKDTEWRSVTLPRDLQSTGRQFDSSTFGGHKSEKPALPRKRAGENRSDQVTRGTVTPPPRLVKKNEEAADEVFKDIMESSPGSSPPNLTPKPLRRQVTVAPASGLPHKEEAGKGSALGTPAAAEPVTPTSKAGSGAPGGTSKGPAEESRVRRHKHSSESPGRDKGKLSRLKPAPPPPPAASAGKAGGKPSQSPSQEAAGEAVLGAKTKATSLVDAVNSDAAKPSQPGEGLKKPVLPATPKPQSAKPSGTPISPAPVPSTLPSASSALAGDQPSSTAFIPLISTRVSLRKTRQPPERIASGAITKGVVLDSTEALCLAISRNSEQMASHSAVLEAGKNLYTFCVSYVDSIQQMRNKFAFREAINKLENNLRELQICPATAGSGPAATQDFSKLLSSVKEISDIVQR
Chain of MARK3 (P27448 whole entry): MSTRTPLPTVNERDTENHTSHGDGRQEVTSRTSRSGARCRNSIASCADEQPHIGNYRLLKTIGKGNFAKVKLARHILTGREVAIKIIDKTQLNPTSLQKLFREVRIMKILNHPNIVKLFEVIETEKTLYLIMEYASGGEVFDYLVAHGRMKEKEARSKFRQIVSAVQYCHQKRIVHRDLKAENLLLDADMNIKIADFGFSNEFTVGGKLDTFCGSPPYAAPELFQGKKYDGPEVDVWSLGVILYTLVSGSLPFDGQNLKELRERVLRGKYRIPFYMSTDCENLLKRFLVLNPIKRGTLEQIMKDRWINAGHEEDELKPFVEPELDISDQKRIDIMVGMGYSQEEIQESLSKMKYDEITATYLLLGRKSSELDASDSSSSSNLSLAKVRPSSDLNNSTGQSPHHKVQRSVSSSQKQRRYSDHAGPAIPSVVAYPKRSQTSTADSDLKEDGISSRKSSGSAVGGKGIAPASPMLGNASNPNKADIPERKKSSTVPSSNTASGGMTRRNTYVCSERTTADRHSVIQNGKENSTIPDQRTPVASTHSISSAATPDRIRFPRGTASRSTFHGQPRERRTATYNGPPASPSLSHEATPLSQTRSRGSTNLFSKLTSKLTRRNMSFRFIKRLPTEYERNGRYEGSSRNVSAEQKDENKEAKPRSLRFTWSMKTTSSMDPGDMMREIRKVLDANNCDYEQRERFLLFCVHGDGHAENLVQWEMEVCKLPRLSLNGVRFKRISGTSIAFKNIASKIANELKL

SMILES: NC(=O)c1cccc2cn(-c3ccc([C@@H]4CCCNC4)cc3)nc12 [Niraparib]
percent of control binding at 10 µM (MARK3; [2]): 91%
percent of control binding at 10 µM [1, 2]: 100%
percent of control binding at 10 µM (HUNK; [2]): 98%
percent of control binding at 10 µM (SRPK2; [2]): 100%
percent of control binding at 10 µM (EGFR; [2]): 67%
percent of control binding at 10 µM (p38-delta; [2]): 82%
percent of control binding at 10 µM (SBK1; [2]): 83%
percent of control binding at 10 µM (HASPIN; [2]): 2.2%
percent of control binding at 10 µM (TESK1; [2]): 79%
percent of control binding at 10 µM (KIT(D816H); [2]): 94%
percent of control binding at 10 µM (FGFR1; [2]): 88%

percent of control binding at 10 µM (MARK3; [3]): 96%
percent of control binding at 10 µM [1, 3]: 95%
percent of control binding at 10 µM (HUNK; [3]): 88%
percent of control binding at 10 µM (SRPK2; [3]): 86%
percent of control binding at 10 µM (EGFR; [3]): 82%
percent of control binding at 10 µM (p38-delta; [3]): 84%
percent of control binding at 10 µM (SBK1; [3]): 95%
percent of control binding at 10 µM (HASPIN; [3]): 72%
percent of control binding at 10 µM (TESK1; [3]): 90%
percent of control binding at 10 µM (KIT(D816H); [3]): 96%
percent of control binding at 10 µM (FGFR1; [3]): 100%
SMILES: O=C(c1cc(Cc2n[nH]c(=O)c3ccccc23)ccc1F)N1CCN(C(=O)C2CC2)CC1 [Olaparib]

percent of control binding at 10 µM (MARK3; [4]): 100%
percent of control binding at 10 µM [1, 4]: 74%
percent of control binding at 10 µM (HUNK; [4]): 100%
percent of control binding at 10 µM (SRPK2; [4]): 68%
percent of control binding at 10 µM (EGFR; [4]): 87%
percent of control binding at 10 µM (p38-delta; [4]): 100%
percent of control binding at 10 µM (SBK1; [4]): 65%
percent of control binding at 10 µM (HASPIN; [4]): 9%
percent of control binding at 10 µM (TESK1; [4]): 98%
percent of control binding at 10 µM (KIT(D816H); [4]): 82%
percent of control binding at 10 µM (FGFR1; [4]): 91%
SMILES: CNCc1ccc(-c2[nH]c3cc(F)cc4c3c2CCNC4=O)cc1 [Rucaparib]

percent of control binding at 10 µM (MARK3; [5]): 98%
percent of control binding at 10 µM [1, 5]: 50%
percent of control binding at 10 µM (HUNK; [5]): 100%
percent of control binding at 10 µM (SRPK2; [5]): 100%
percent of control binding at 10 µM (EGFR; [5]): 85%
percent of control binding at 10 µM (p38-delta; [5]): 98%
percent of control binding at 10 µM (SBK1; [5]): 96%
percent of control binding at 10 µM (HASPIN; [5]): 100%
percent of control binding at 10 µM (TESK1; [5]): 99%
percent of control binding at 10 µM (KIT(D816H); [5]): 100%
percent of control binding at 10 µM (FGFR1; [5]): 94%
SMILES: Cn1ncnc1[C@H]1c2n[nH]c(=O)c3cc(F)cc(c23)N[C@@H]1c1ccc(F)cc1 [Talazoparib]

— article PMC7026418, “The kinase polypharmacology landscape of clinical PARP inhibitors” (Scientific Reports, 2020)
